This note sets out measurements from a melting point compilation (Tetko et al.; mined from patent text by program, amines drawn as free bases though some values may be those of a salt).

What is called melting point is the temperature of the solid-liquid transition.

On to `CCN1C(=O)C(C)(C)C(=O)N(C)c2cc(CN(CCn3ccc4ccsc4c3=O)Cc3cc(C)nn3C)ccc21`, for which the melting point lay within 127 to 128 °C. `Cc1nc[nH]c1CSCCNc1cc(=O)cc[nH]1` yielded a melting point of 208 to 210 °C. The result for `C#Cc1ccc(I)c(Oc2cnc(N)nc2N)c1` reads 156 to 159 °C. Under `O=C(O)Cc1ccc(-c2ccc(F)cc2F)c(Cl)c1` stands 114 to 116 °C.

Consider `CC(=O)Nc1ccc(CSc2nc3cnccc3[nH]2)cc1`, for which the melting point lay within 231 to 234 °C. For `O=c1[nH]c(-c2ccccc2)cn1S(=O)(=O)c1ccc2c(c1)CCN2Cc1cccnc1`, the melting point was 244 to 245 °C. For the molecule `CC(=O)Nc1ccc(Oc2ccccc2)c2c(=O)c3ccccc3n(C)c12`, the melting point lay within 252 to 254 °C. The result for `CC1=CCC2C(=O)OC(=O)C2C1` (stereo not drawn) reads 58 to 63 °C; that for `CN1CCN(c2ccc(O)c3c2C[C@H](NC(=O)c2ccc(N4CCOCC4)cc2)CC3)CC1`, 84 to 88 °C; that for `COC(=O)c1cccc(-c2nc(COc3ccc(CCl)cc3OC)c(C)o2)c1`, 125 to 126 °C. The result for `O=C(NCCO)c1ccccc1S(=O)(=O)Cc1c(O[C@H](Cn2ccnc2)c2ccccc2)ccc2c1CCCC2=O` reads 241 to 243 °C. For the molecule `CCOC(=O)Cc1c(C)c2ccc(O)cc2oc1=O`, the melting point is 167 to 168 °C. For the molecule `CN(CCNc1ccc2ncc(-c3ccccc3)n2n1)C(=O)OC(C)(C)C`, the melting point was in the range of 150 to 151 °C. For the molecule `CC(C)Oc1ccc(-c2nn(C(C)c3oc4ccccc4c(=O)c3-c3cccc(F)c3)c3ncnc(N)c23)cc1F` (stereo not drawn), the melting point fell in the range of 204 to 206 °C. `COc1ccc(N(C=C(C#N)C#N)CCC#N)cc1` registered a melting point of 175 to 177 °C. The result for `CCCCN(CCCC)CCNC(=O)c1cccc(NC(=O)N2CCc3cc(SC)c(C(F)(F)F)cc32)c1` reads 128 to 130 °C; that for `CC[C@@]1(C)OC(=O)C(c2ccc(F)c(F)c2)=C1c1ccc(S(C)(=O)=O)cc1`, 144 °C; that for `Nc1ccc(NC2CCCCCC2)c([N+](=O)[O-])c1`, 153 °C. Under `COC(=O)c1ccc(Cl)cc1NC(=O)CSc1ccc(N)cc1` stands 145 to 147 °C. Turning to `O=[N+]([O-])c1ccc(NCCNS(=O)(=O)c2ccccc2)cc1`, the melting point stood at 171 °C. With `CN(c1cccc2cc(C3=NCC(CCO)S3)[nH]c12)S(=O)(=O)c1ccccc1C(F)(F)F` (stereo not drawn), the melting point fell in the range of 153 to 154 °C.

Molecule `Cc1cn(-c2cc(C#N)c(N)c(C(F)(F)F)c2)c(C)n1` gave a melting point of 208 to 210 °C. Under `CC12CCC(C(=O)O)=CC1=CCC1C2CCC2(C)C(C(=O)NC3C4CC5CC(C4)CC3C5)CCC12` (stereo not drawn) stands 214 to 216 °C; under `COC(=O)CCCCCOc1ccc(NC(=O)CCCCCO)cc1`, 73 to 75.5 °C. Under `Cc1ccc(S(=O)(=O)NCC[C@@H](NS(=O)(=O)c2ccc(C)cc2)C(=O)NO)cc1` stands 152 to 153 °C; under `Cc1ccc2c3c(ccc2n1)OCC(CN1C2CCC1CC(O)(c1cccc(C(F)(F)F)c1)C2)O3` (stereo not drawn), 146 to 150 °C. Under `Cc1ccc(NC(=O)Cc2ccc(OC(C)(C)C(=O)O)cc2)cc1` stands 164 °C; under `COCCCCCCCCCCCC(N)=S`, 86.8 to 89.2 °C; under `CN1CCN(C2=Cc3ccccc3Oc3ccccc3C2)CC1`, 127 °C. The molecule `COc1cc(N(C(C)=O)C2CCCCC2)c2ccccc2c1OC(C)=O` came in with a melting point of 137 to 139 °C. Regarding `CC(C(=O)O)c1ccc(N2CC(O)C(O)C2)c(Cl)c1` (stereo not drawn), the melting point was 112 to 114 °C. The result for `COc1cc2ncc(C#N)c(Nc3ccc(F)c(Cl)c3)c2cc1-n1cccc1` reads 192 to 194 °C; that for `COc1ccc(C(=O)Nc2ccccc2)cc1NC(=S)NC(=O)c1ccccc1`, 219 to 222 °C. `CC(C)c1cc2c(cc1Oc1ccc(C(=O)O)cc1)C(C)(C)CCC2(C)C` showed a melting point of 205 to 206 °C. On to `Cc1ccc(C)c(OCCC(N)C(C)(C)C(=O)O)c1` (stereo not drawn), for which the melting point lay in the range of 86.1 to 86.9 °C. Under `O=C(O)COCc1cc(Br)ccc1C(=O)O` stands 194 to 196 °C; under `CO[C@@H]1C[C@H](C(=O)Nc2ccc(N3CCOCC3=O)cc2)N(C(=O)Nc2ccc(Cl)cc2)C1`, 133 °C. Under `COc1cc(OC)c(F)c(N2Cc3cnc(SC)nc3N(C3CC3)C2=O)c1F` stands 173 to 176 °C. The result for `COC(=O)c1ccc(CCc2ccncc2)cc1` reads 62 to 64 °C; that for `O=[N+]([O-])c1ccc(C=Cc2nc(Nc3ccccc3)c3ccccc3n2)o1`, 183 °C; that for `CC(CNC(=O)c1ccc(N2CCC(N3C(=O)C(F)(F)c4ccccc43)CC2)nn1)C1CC1` (stereo not drawn), 51 to 53 °C. Turning to `OCC1(CO)C=CC(c2ccccc2)=CC1`, the melting point lay within 187 to 188 °C. Under `CC(CCl)n1c(C(F)(F)F)nc2cc(F)c(-n3c(=O)cc(C(F)(F)F)n(C)c3=O)cc21` (stereo not drawn) stands 93 to 95 °C; under `CCCCCCCCCCCCCCCCCC1OCC(COC(O)CCCCC=O)O1` (stereo not drawn), 53.6 to 55.7 °C.

As to `CCCCCCn1c(=O)[nH]c2ncccc2c1=O`, the melting point was in the range of 166 to 168 °C. The result for `Nc1ccc(N2CCN(CCCN3c4cccc5cccc(c45)S3(=O)=O)CC2)cc1` reads 113 °C; that for `CCc1nc(C)ccc1OC1SCC(OC(C)=O)C(OC(C)=O)C1OC(C)=O` (stereo not drawn), 123 to 127 °C; that for `CC(=O)Oc1ccc(C(Cl)=CC=O)cc1[N+](=O)[O-]`, 128 to 130 °C.

`CC(=O)c1cc(-c2ccncc2)sc1-c1ccncc1` came in with a melting point of 117 to 119 °C. `Nc1cc([N+](=O)[O-])cc(CCO)c1N` gave a melting point of 172 °C. The result for `CN(C)C(=O)c1cncc([N+](=O)[O-])c1` reads 65 °C. The result for `COc1cc(Nc2c(C#N)cnc3cc(/C=C/CN4CCOCC4)c(OC)cc23)c(Cl)cc1Cl` reads 105 to 106 °C; that for `NC(=O)C1CCc2ccc(C(=O)c3ccccc3)cc21` (stereo not drawn), 195 to 197 °C; that for `COc1ccc(Cl)cc1[C@]1(F)C(=O)N(C(=O)NC(C)(C)C(=O)O)c2cc(C(F)(F)F)ccc21`, 57 to 60 °C.

Consider `Cn1ncnc1COc1ccc2nnc(-c3ccccc3)n2n1`, for which the melting point worked out at 254 °C. `Cc1ccc(OCCO)cn1` came in with a melting point of 49 to 51 °C.

As for `COC(=O)c1ccc2[nH]cc(C(=O)c3ccccc3)c2c1`, the melting point lay within 271 to 273 °C. Consider `Clc1ccc(CN2CC=C(/C=C/c3cccc(Cl)c3)CC2)cc1`, for which the melting point was 94 to 96 °C.

Molecule `CCCCCN(C(=O)c1cnc(N2CC(C)(C)NC2=O)nc1N)c1cccc(C(F)(F)F)c1` returned a melting point of 167 to 168 °C. `COC(C)(C)c1cc(C(C)(C)OC)cc(C(C)(C)OC)c1` registered a melting point of 44 °C. On to `Cc1nc2cccc(N)c2nc1C`, for which the melting point is 162 to 163 °C.

As to `O=C1Cc2cc(C(O)CN3CCC(O)(c4ccccc4)CC3)ccc2N1` (stereo not drawn), the melting point lay within 192 to 194 °C.

Take `CC(C)Cn1c(CO)c(-c2ccc(Cl)cc2)c2cc(OCc3ccccc3)ccc2c1=O`: the melting point lay in the range of 87 to 88 °C. The result for `CC(=O)N1CCN=C1CC(c1ccccc1)c1ccccc1` reads 104 to 106 °C; that for `C=CCn1c2ccccc2c2sccc(=O)c21`, 67 to 68 °C. The result for `Cc1noc(NS(=O)(=O)c2cc(Cl)c(Cl)s2)c1Br` reads 135 to 138 °C; that for `COc1ccc(N2CCN(c3c(C)c(C)c4c(c3-c3ccc(N(C)C)cc3)CC(C)(C)O4)CC2)cc1`, 177 to 179 °C. Under `CC(C(=O)O)c1cccc(NC(=O)NCC(=O)N2[C@@H](c3ccccc3)CC[C@H]2C(=O)OC(C)(C)C)c1` (stereo partly drawn) stands 120 °C. The molecule `O=C(O)c1cccc(-c2ccc(-c3ccc(C(F)(F)F)cc3)o2)c1` registered a melting point of 271 to 272 °C. Take `NCCCNC(=O)c1ccc(-c2ccc3nnn(Cc4ccc5ncccc5c4)c3n2)cc1F`: the melting point fell in the range of 292 to 294 °C. The molecule `NC(=O)N(O)CCCCNC(=O)c1cccc(Oc2ccccc2)c1` displayed a melting point of 131 to 133 °C. `Cc1cccc(OCC2=NCCN2S(C)(=O)=O)c1C` yielded a melting point of 142 to 143 °C.

`COC(=O)NNc1cc(C)c(-c2cccc([N+](=O)[O-])c2)nn1` showed a melting point of 198 to 199 °C. `Nc1cc(-c2cccnc2)cc2nc(-c3ccccc3)nn12`: the melting point is 201 to 203 °C. Under `Cc1ccc(-c2cccc3cc(Cc4cccc(C(F)(F)F)c4)sc23)cc1C(=O)NCC(N)=O` stands 143 to 144 °C; under `CCOC(=O)c1ccc(NCCCOc2cccc3ccccc23)cc1`, 93 to 94 °C. As for `O=C(O)COc1ccc2cc(-c3oc4ccccc4c3CCC3CCCC3)ccc2c1Br`, the melting point was in the range of 155 to 156 °C. The result for `CC1=C(C(=O)Nc2cnc3c(C)cc(C)cc3c2-c2ccccc2Cl)Sc2ccccc2N1` reads 177 to 178 °C. The result for `CCOC(=O)CC(=O)c1ccc(-c2ccc(Cl)cc2)cc1` reads 45 to 50 °C; that for `O=C1NC(=O)c2c1c1c3ccc(F)cc3[nH]c1c1c2c2ccc(F)cc2n1C1OC2COC(C2O)C1O` (stereo not drawn), over 300 °C; that for `CC(C)(C)CN1C(=O)[C@@H](CC(=O)NCc2nnn[nH]2)O[C@H](c2ccccc2Cl)c2cc(Cl)ccc21` (relative stereo), 251 to 252 °C. Under `COc1cc(/C=C/CO)cc(OC)c1OCc1ccccc1` stands 72 to 73 °C. In turn, `CON=C1CCc2c(cccc2OCC(O)CN2CCN(C(c3ccccc3)c3ccccc3)CC2)C1` (stereo not drawn) had a melting point of over 183 °C. Under `Cn1nnnc1-c1cnc2cc(Cl)ccc2c1O` stands 350 to 351 °C; under `O=C(O)c1ccc(OC(F)F)c(OC2CCCC2)c1`, 126 to 128 °C; under `COc1cc2ncc(C#N)c(Nc3cccc(N)c3)c2cc1OC`, 222 to 228 °C. The result for `COc1ccc2c(c1)C(O)CC21CCN(CCCC(=O)c2ccc(F)cc2)C1` (stereo not drawn) reads 113 to 115 °C; that for `COC(=O)c1ccccc1S(=O)(=O)NC(=O)Nc1ncc(Cl)cn1`, 217 to 221 °C.
